Literature values in patent US10638758B2, “Heterocycle-containing amino acid compound and use thereof” (AICHI STEEL CORPORATION, priority 2015, dated 2020).

System: rice
Conditions: alkaline conditions; Non-Patent Document 2

Question: For `O=C(O)[C@@H](NCC[C@H](O)C(=O)O)[C@@H](O)CN1CC[C@H]1C(=O)O` [mugineic acid], which “effect on the growth of graminaceous plants” value is on record?
Answer: dramatic effect
